Experimental data: ChEMBL document CHEMBL3301562, “MMV Box screening against Plasmodium falciparum protein kinases and aminoacyl tRNA synthetases”

What was measured:
Format in all cases: functional
[1] = molecular target: T1, Mitogen-activated protein kinase (Plasmodium falciparum, UniProt Q25917); test: Final concentrations were 1 uM ATP, 0.5 mM DTT, 1 mM MgCl2, 0.5 mg/mL BSA, and 10 ug/ml MAP2 in a buffer of 50 mM HEPES (pH 7.0). 0.5 mg/mL histone III-S served as the substrate (13); 100 uM AMP-PNP, an ATP analog, was used as a control inhibitor. Incubation time was 4 hours.
T1 sequence (Q25917 whole entry): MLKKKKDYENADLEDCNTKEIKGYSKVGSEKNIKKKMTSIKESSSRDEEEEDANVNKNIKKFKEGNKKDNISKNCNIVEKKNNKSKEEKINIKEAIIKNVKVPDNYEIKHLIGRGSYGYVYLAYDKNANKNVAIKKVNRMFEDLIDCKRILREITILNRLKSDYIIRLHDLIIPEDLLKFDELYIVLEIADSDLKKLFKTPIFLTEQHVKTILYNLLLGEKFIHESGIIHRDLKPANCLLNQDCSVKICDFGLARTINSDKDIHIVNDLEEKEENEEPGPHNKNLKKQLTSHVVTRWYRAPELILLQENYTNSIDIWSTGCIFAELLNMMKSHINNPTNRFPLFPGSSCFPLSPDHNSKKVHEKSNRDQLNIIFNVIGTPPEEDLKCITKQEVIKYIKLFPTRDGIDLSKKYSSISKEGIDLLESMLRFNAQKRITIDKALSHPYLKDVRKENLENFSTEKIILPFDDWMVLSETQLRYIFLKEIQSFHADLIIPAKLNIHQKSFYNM

Proline--tRNA ligase = molecular target: T2, Proline--tRNA ligase (Plasmodium falciparum (isolate 3D7), UniProt Q8I5R7); test: MMV: ProRS recombinant Plasmodium falciparum Prolyl-tRNA-synthetase, assay with yeast tRNA, ATP, and proline and 3 uM MMV malaria box compound, assay read out with kinase glo as % inhibition.
T2 sequence (Q8I5R7 whole entry): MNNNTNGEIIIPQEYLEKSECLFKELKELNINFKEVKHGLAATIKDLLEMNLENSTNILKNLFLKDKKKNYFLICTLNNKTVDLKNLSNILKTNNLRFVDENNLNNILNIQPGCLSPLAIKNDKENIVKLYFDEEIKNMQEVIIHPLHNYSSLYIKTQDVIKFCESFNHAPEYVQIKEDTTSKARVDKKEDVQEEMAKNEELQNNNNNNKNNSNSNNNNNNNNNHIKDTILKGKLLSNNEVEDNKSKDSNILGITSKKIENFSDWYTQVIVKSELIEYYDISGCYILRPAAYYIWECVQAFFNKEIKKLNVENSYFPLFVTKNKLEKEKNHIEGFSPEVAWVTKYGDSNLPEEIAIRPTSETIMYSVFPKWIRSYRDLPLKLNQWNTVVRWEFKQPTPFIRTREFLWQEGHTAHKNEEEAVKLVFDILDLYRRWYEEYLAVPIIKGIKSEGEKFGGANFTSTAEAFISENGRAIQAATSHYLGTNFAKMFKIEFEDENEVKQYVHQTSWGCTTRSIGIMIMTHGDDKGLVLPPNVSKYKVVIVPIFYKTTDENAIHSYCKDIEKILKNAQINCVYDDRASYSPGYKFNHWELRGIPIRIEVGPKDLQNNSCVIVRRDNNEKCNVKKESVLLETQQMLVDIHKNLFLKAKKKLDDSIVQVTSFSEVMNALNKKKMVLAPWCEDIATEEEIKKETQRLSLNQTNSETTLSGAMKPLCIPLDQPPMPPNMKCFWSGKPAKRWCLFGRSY

[2] = molecular target: T3, Cdk-related protein kinase 6 (Plasmodium falciparum, UniProt O77239); test: Final concentrations were 1.5 uM ATP, 5 mM MnCl2, and 15 ug/ml PK6 in a buffer of 100 mM Tris-HCl (pH 7.5). 50 ug/mL MBP was provided as the substrate; 10 uM staurosporine was used as a control inhibitor. Incubation time was 3 hours and 40 minutes.The catalytic activity of each kinase was considered proportional to ATP consumed, as determined from measurements of residual [ATP] with the luciferase-based reagent Kinase-Glo (Promega) following incubation. Luminescence (proportional to residual [ATP]) was measured on the plate readers FLx800 (BioTek Instruments, Winooski, VT, USA) and MicroBeta2.
T3 sequence (O77239 whole entry): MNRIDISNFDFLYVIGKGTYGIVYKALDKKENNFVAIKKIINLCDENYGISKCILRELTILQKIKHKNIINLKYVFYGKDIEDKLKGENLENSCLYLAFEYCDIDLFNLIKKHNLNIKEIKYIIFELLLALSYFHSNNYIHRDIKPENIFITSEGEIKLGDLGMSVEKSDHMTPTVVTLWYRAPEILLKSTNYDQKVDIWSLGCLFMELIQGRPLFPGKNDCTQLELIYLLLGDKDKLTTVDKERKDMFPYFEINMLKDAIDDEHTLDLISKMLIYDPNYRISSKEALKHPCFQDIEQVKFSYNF

[3] = molecular target: Calcium-dependent protein kinase 1 (Plasmodium falciparum, UniProt P62344); test: MMV: CDPK1 Protein kinase inhibition assay using recombinant PfCDPK1, syntide 2 peptide substrate, ATP and KinaseGlo to measure % inhibition at 1 uM MMV box compound.
Lysine--tRNA ligase = Lysine--tRNA ligase (Plasmodium falciparum (isolate 3D7), UniProt Q8IDJ8); test: MMV: KRS recombinant Plasmodium falciparum Lysyl-tRNA-synthetase, assay with yeast tRNA, ATP, and lysine and 3 uM MMV malaria box compound, assay read out with kinase glo as % inhibition.
[4] = molecular target: T4, Putative uncharacterized protein pk7 (Plasmodium falciparum, UniProt O96214); test: Final concentrations were 1 uM ATP, 2 mM DTT, 20 mM MgCl2, 2 mM MnCl2, 0.01% BSA, and 6 ug/ml PK7, in a buffer of 20 mM Tris-HCl (pH 7.5). The enzyme itself was the only substrate present (since autophosphorylation occurs); 100 uM 1NA-PP1 was used as a control inhibitor. Incubation time was 3 hours.
T4 sequence (O96214 whole entry): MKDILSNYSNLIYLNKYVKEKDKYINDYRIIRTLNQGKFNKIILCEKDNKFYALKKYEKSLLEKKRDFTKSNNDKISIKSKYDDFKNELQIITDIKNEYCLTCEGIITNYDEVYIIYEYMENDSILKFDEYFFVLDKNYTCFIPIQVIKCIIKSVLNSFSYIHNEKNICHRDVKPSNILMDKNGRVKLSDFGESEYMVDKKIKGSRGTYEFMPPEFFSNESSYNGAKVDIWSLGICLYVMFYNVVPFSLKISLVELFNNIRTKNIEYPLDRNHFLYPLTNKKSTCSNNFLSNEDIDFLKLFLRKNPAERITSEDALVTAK

[5] = molecular target: T5, Calcium-dependent protein kinase 4 (Plasmodium falciparum (isolate 3D7), UniProt Q8IBS5); test: MMV: CDPK4 Protein kinase inhibition assay using recombinant PfCDPK4, syntide2 peptide substrate, ATP and KinaseGlo to measure % inhibition at 1 uM MMV box compound.
T5 sequence (Q8IBS5 whole entry): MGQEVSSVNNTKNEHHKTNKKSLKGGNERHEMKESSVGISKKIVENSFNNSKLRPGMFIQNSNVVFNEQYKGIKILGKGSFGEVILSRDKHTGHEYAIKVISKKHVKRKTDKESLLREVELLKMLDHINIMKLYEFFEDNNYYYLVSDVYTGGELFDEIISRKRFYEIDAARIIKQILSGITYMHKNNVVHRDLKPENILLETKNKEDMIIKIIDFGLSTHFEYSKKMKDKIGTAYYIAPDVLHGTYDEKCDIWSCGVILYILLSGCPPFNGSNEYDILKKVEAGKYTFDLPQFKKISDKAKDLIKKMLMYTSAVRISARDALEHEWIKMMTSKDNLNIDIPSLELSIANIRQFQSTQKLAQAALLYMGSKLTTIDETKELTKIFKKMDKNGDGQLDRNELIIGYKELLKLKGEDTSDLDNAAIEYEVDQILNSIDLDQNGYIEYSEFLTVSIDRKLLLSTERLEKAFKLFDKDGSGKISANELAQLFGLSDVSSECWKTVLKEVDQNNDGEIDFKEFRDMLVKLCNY

Measured: IC50

Sequence of Calcium-dependent protein kinase 1 (P62344 whole entry): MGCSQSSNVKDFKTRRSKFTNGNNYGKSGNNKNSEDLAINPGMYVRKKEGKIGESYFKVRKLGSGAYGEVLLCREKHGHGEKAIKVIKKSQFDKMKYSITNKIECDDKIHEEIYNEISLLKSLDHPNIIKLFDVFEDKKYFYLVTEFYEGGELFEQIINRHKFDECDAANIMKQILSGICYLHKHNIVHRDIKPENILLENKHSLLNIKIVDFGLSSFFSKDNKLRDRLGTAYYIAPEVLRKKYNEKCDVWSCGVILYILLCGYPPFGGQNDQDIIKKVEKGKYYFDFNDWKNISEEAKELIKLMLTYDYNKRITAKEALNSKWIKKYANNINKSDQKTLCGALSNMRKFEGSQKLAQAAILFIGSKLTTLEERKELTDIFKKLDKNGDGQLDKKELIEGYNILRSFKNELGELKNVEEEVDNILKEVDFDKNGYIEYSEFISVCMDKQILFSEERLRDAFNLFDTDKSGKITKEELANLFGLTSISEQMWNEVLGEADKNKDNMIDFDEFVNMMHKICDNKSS
Sequence of Lysine--tRNA ligase (Q8IDJ8 whole entry): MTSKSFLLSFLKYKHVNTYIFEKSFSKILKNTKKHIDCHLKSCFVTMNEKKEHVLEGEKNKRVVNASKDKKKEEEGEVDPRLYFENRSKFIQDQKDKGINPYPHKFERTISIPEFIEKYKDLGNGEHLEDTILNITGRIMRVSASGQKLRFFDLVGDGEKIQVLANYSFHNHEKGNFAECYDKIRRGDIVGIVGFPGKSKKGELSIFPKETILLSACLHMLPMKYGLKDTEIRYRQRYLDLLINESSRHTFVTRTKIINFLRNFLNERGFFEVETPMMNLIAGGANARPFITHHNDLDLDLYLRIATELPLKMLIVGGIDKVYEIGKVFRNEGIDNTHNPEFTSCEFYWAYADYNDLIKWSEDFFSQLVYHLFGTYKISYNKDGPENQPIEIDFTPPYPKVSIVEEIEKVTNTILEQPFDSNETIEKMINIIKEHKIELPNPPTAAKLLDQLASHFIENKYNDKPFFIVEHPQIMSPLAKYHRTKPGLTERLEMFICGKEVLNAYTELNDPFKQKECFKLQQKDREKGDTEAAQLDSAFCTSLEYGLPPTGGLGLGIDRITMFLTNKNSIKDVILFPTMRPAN

COc1ccc2c(c1)C1(Nc3ccccc3-c3nc4ccccc4n31)C(=O)N2 (centres undefined)
> 2500 nM: Proline--tRNA ligase | Lysine--tRNA ligase
> 1000 nM: [1] | [2] | [3] | [4] | [5]

COc1cccc(Cn2c(Oc3ccccc3)nc3c2c(=O)n(C)c(=O)n3C)c1
> 2500 nM: Proline--tRNA ligase | Lysine--tRNA ligase
> 1000 nM: [1] | [2] | [3] | [4] | [5]

CCOc1ccccc1CN1CCc2nc3cc(C(C)(C)C)nn3c(O)c2C1
> 2500 nM: Proline--tRNA ligase | Lysine--tRNA ligase
> 1000 nM: [1] | [2] | [3] | [4] | [5]

Cc1cc(N2CCCC2)nc(Nc2ccc(NC(=O)CCc3ccccc3)cc2)n1
> 2500 nM: Proline--tRNA ligase | Lysine--tRNA ligase
> 1000 nM: [1] | [2] | [3] | [4] | [5]

CN1CCN(c2ncnc3c2[nH]c2ccc(Cl)cc23)CC1
> 1000 nM: [1] | [2] | [3] | [4] | [5]
> 2500 nM: Proline--tRNA ligase | Lysine--tRNA ligase

CN(C)CCNc1cc(-c2ccccc2)nc2ccccc12
> 1000 nM: [1] | [2] | [3] | [4] | [5]
> 2500 nM: Proline--tRNA ligase | Lysine--tRNA ligase

COc1ccc2nc(C)cc(Nc3ccc(Cl)cc3)c2c1
> 1000 nM: [1] | [2] | [3] | [4] | [5]
> 2500 nM: Proline--tRNA ligase | Lysine--tRNA ligase

COc1ccc2nc(C)cc(Nc3cccc(O)c3)c2c1
> 1000 nM: [1] | [2] | [3] | [4] | [5]
> 2500 nM: Proline--tRNA ligase | Lysine--tRNA ligase

Cc1sc2ncnc(Sc3nc4ccccc4[nH]3)c2c1C
> 1000 nM: [1] | [2] | [3] | [4] | [5]
> 2500 nM: Proline--tRNA ligase | Lysine--tRNA ligase

O=C(Nc1ccc(CN2CCOCC2)cc1)c1ccc(-c2cc(Cl)ccc2Cl)o1
> 1000 nM: [1] | [2] | [3] | [4] | [5]
> 2500 nM: Proline--tRNA ligase | Lysine--tRNA ligase

CCOc1ccccc1NC(=O)CN1CCN(C(=O)c2ccco2)CC1
> 2500 nM: Proline--tRNA ligase | Lysine--tRNA ligase
> 1000 nM: [1] | [2] | [3] | [4] | [5]

CCOc1cc2c(cc1OCC)C(c1cc(C)c(O)c(C)c1)NCC2 (centres undefined)
> 2500 nM: Proline--tRNA ligase | Lysine--tRNA ligase
> 1000 nM: [1] | [2] | [3] | [4] | [5]

CC(C)c1ccc(CNCC(O)c2ccccc2)cc1 (centres undefined)
> 2500 nM: Proline--tRNA ligase | Lysine--tRNA ligase
> 1000 nM: [1] | [2] | [3] | [4] | [5]

Oc1ccc(Br)cc1CN1CCN(Cc2cccc(F)c2)CC1
> 1000 nM: [1] | [2] | [3] | [4] | [5]
> 2500 nM: Proline--tRNA ligase | Lysine--tRNA ligase

CN(C)c1ccc(N2C(N)=NC(N)=NC2(C)C)cc1
> 1000 nM: [1] | [2] | [3] | [4] | [5]
> 2500 nM: Proline--tRNA ligase | Lysine--tRNA ligase

Oc1c(CN2CCN(c3ccccc3F)CC2)cc(Br)c2cccnc12
> 2500 nM: Proline--tRNA ligase | Lysine--tRNA ligase
> 1000 nM: [1] | [2] | [3] | [4] | [5]

CCCCc1c(C)nc2c(OC)cccc2c1O
> 2500 nM: Proline--tRNA ligase | Lysine--tRNA ligase
> 1000 nM: [1] | [2] | [3] | [4] | [5]

Clc1ccc2c(N3CCCC3)ccnc2c1
> 2500 nM: Proline--tRNA ligase | Lysine--tRNA ligase
> 1000 nM: [1] | [2] | [3] | [4] | [5]

CCOC(=O)C1CCN(C(=O)CN2C(=O)c3ccccc3C2c2c[nH]c3ccccc23)CC1 (centres undefined)
> 1000 nM: [1] | [2] | [3] | [4] | [5]
> 2500 nM: Proline--tRNA ligase | Lysine--tRNA ligase

O=c1c2c([nH]c3ccccc13)CCCC2
> 2500 nM: Proline--tRNA ligase | Lysine--tRNA ligase
> 1000 nM: [1] | [2] | [3] | [4] | [5]

Cc1c(C)n(CC(O)CNC2CCCCC2C)c2ccccc12 (centres undefined)
> 2500 nM: Proline--tRNA ligase | Lysine--tRNA ligase
> 1000 nM: [1] | [2] | [3] | [4] | [5]

CCCCN(CCCC)S(=O)(=O)c1ccc(NC(=O)c2ccco2)cc1
> 2500 nM: Proline--tRNA ligase | Lysine--tRNA ligase
> 1000 nM: [1] | [2] | [3] | [4] | [5]
